Consider nine compounds from patent US11071744B2, “Prodrug salts” (AEROMICS, INC., priority 2013, dated 2021).

Structures are written as SMILES. In brackets after ≈: the same amount, converted by molar mass. Where a name gives a salt, the structure may show the parent alone. Read-outs that look alike come from different tables or passages of the source.

How the values of data set [1] were obtained:
(§1) 15 g is dissolved in 1.2 L of water with 120 mM of sodium hydroxide and extracted with 500 ml ethyl acetate to remove phenol and non acid impurities. The aqueous layer is acidified with concentrated HCl to pH 1.2 and extracted with ethyl acetate 1 L followed by 600 ml. […] Ethyl acetate is removed by adding 100 ml of methanol and evaporating. […] Sample kept at RT.

The nature of another data set: physchem. The conditions noted are these: for final pH of solutions: in water. On the procedure: as §1
The test system of data set [2] is mouse water toxicity model. The experiment in a line: Mouse water toxicity model, survival curves. The conditions noted are these: 0.76 mg/kg vs placebo.
Description: Mouse Water Toxicity Model—Survival Curves: The in vivo efficacies of the compounds are tested using the mouse water toxicity model, where a mouse is injected with water at 20% of its body weight. […] The resulting euvolemic hyponatremia rapidly leads to CE, making this a practical model to test an inhibitor of the CNS aquaporin, AQP4b.
The ability of mice to survive H2O toxicity is determined in three experiments using 10-12 mice each (16-19 weak old male/female). Deionized water is prepared for injection with either 0.39 mg/kg phenylbenzamide (placebo) or 0.76 mg/kg with test compound.
Data set [3] concerns mouse water toxicity model. Put plainly: Mouse water toxicity model, brain volume by MRI.
Description: Mouse Water Toxicity Model—Brain Volume by Magnetic Resonance Imaging (MRI): MRI is used to measure changes in brain volume in response to water shock, using the water toxicity model. As described for the survival and brain water content studies above, mice are injected, IP, with a water bolus alone or water bolus and test compound at 0.76 mg/kg, and changes in brain volume as detected by MRI are monitored. […] High resolution T2-weighted sagittal scans (resolution=0.1 mm×0.1 mm×0.7 mm) of the mouse head are obtained prior to water injection, 5.67 min post water injection, and then every 5.2 minutes until the animal expires from the water loading. Each scan contains twenty-five 0.7 mm contiguous imaging slices of which 14-15 slices contain a portion of the brain. The cross sectional area of the brain in each imaging slice is measured by manual region-of-interest selection using ImageJ. Brain volumes are then calculated for each scan by summing the individual cross sectional brain areas and multiplying by the slice thickness (0.7 mm).
The brain volume by magnetic resonance imaging experiment is also conducted with phenylbenzamide (0.39 mg/kg) and Compound 4 (0.83 mg/kg).
Data set [4] concerns the target T1, AQP4b (Homo sapiens, UniProt P55087).
T1 construct: expressed in transfected cells
Put plainly: Aquaporin-Mediated Cell Volume Change Assay, CHO-AQP4b cells. It is filed as cell-based. To be noted: read-out: inhibition of rate of shrinking, 10 μM, CHO-AQP4b cells, hypertonic shock. On the procedure:
(§2) Structure activity relationships (SARs) are determined by assaying analogues of selected hits to guide chemistry for the preparation of new molecules to be tested for improved potency. For this iterative process we use a quantitative kinetic assay—the Aquaporin-Mediated Cell Volume Change Assa—in a 96-well multiplate reader. It detects changes in light scattering by a monolayer of CHO cells expressing the desired AQP as they shrink when exposed to hypertonic solution (300 mOsm→530 mOsm). FIG. 1 depicts the aquaporin-mediated cell volume change assay with AQP4 expressing cells (FIG. 1A) and AQP2 expressing cells (FIG. 1B). The cells expressing aquaporins shrink more rapidly than control cells, due to enhanced water flow, which shrinkage can be inhibited by a compound that inhibits the aquaporin.
(§3) In FIG. 1, aquaporin-expressing cells are shown in the presence of DMSO (triangles) or in the presence of the test compound (here, Compound 3) at 10 μM (squares), along with CHO-CD81 expressing control cells in the presence of DMSO (diamonds). Each curve represents an average of 16 wells in the 96-well plate.
(§4) In FIG. 1A, when the AQP4b cells treated with DMSO are exposed to hypertonic shock, the cells show rapid shrinking, giving a rise in light scattering (increasing relative change in absorbance, Abs/Abs0) followed by a decay as cells detach from the plate. […]

The test system of data set [5] is AQP4b. Described as above. In kind it is cell-based. The conditions noted are these: 10 μM, AQP4 (both splice variants). On the procedure:
as §2, §3, §4

A further data set deals with T2, AQP2 (Homo sapiens, UniProt P41181).
T2 construct: expressed in transfected cells
T2 sequence (P41181 1-271): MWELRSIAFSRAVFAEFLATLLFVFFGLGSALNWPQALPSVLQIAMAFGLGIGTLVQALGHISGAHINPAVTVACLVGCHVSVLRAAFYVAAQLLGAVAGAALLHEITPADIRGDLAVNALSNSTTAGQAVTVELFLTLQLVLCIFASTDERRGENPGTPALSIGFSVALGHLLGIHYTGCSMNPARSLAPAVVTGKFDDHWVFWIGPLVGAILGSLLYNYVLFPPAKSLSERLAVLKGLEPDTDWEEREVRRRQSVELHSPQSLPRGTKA
Put plainly: Aquaporin-Mediated Cell Volume Change Assay, CHO-AQP2 cells. In kind it is cell-based. To be noted: 10 μM. On the procedure: as §2, §3, §4

Another data set addresses T3, AQP1 (Homo sapiens, UniProt P29972).
T3 construct: expressed in transfected cells
T3 sequence (P29972 1-269): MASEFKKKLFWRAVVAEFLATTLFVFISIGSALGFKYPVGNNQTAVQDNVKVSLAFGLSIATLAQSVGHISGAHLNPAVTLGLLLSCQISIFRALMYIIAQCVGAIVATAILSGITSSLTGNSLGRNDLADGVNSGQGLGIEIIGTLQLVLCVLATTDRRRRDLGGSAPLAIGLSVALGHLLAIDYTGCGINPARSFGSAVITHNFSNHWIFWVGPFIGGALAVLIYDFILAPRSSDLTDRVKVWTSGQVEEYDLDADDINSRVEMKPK
The experiment in a line: Aquaporin-Mediated Cell Volume Change Assay, CHO cells expressing AQP1. It is filed as cell-based. To be noted: 10 μM. On the procedure: as §2
(§5) The specificity of the compounds is tested against the most closely related of the 13 known aquaporins: AQP1, AQP2, AQP5 and both splice variants of AQP4 (A and B). A stable CHO cell line is created for each of the above aquaporins and the inhibition of water permeability using the Aquaporin-Mediated Cell Volume Change Assay with 10 μM Compound 3 is tested.

Another data set addresses T4, AQP5 (Homo sapiens, UniProt P55064).
T4 construct: expressed in transfected cells
The experiment in a line: Aquaporin-Mediated Cell Volume Change Assay, CHO cells expressing AQP5. It is filed as cell-based. To be noted: 10 μM. On the procedure:
as §2, §5

A further data set has as its target T5, AQP4 (Homo sapiens, UniProt P55087).
T5 construct: expressed in transfected cells; host or cells: CHO
The experiment in a line: AQP Inhibition Cell-Based Assay (Table 1).

For another data set, the target named is purified AQP4b (Homo sapiens, UniProt P55087). The experiment in a line: Hummel-Dryer style binding assay with [3H]-Compound 4. On the procedure:
To support the mechanism of action by which phenylbenzamides directly block AQP4, we perform in vitro binding studies using purified AQP4b and Compound 4 radiolabeled with ^3H. Using a Hummel-Dryer style assay, a gel filtration column is equilibratrated with buffer containing detergent, to maintain solubility of AQP4b, and 1 μM [^3H]-Compound 4. AQP4b is diluted to 250 μM in this column buffer and incubated at RT for 30 min. The sample is then applied to the column, fractions collected and the presence of [^3H]-Compound 4 detected by liquid scintillation counting. […] The rise in [^3H]-Compound 4 from a baseline value of 1 μM represents binding to each of these proteins.

Data set [6] relates to mouse middle cerebral artery occlusion (MCAo) model. The experiment in a line: MCAo stroke model, survival. In kind it is in vivo. The conditions noted are these: at 24 h; 2 mg/kg i.p. loading dose plus 1 mg/ml at 8 μl/h pump, vs saline.
Description: (§6) To mimic this injury in mice, an intraluminal monofilament model of middle cerebral artery occlusion (MCAo) is used. Occlusion is achieved by inserting a surgical filament into the external carotid artery (ECA) and threading it forward into the internal carotid artery (ICA) until the tip blocks the origin of the MCA. […] This technique is used to study a temporary occlusion in which the MCA is blocked for one hour. The filament is then removed allowing reperfusion to occur for 24 hours before the animals brain is imaged using T2-weighted scans in a 9.4T Bruker MRI scanner at the Case Center for Imaging Research (FIG. 10).
Survival—Mice are treated with Compound 5 using a 2 mg/kg i.p. loading dose and 1 mg/ml at 8 μl/h maintenance dose (delivered by an i.p. osmotic pump) of Compound 5, or given saline (controls; n=17) using an identical approach.
Data set [7] has the same test system. The experiment in a line: MCAo stroke model, neurological outcome. It is filed as in vivo.
Description: as §6
Neurological Outcome—In the same experiment as above, animals are scored for neurological outcome on a simple 5 point scale described in Manley, G. T. et al., Aquaporin-4 Deletion in Mice Reduces Brain Edema After Acute Water Intoxication and Ischemic Stroke, Nature Medicine, 6, 159-163 (2000).
For data set [8] the test system is unchanged. Put plainly: MCAo stroke model, cerebral edema (hemispheric brain volume by MRI).
Description: as §6
Cerebral Edema—Mice are given saline or treated with Compound 5 by multi-dosing at 5 mg/kg i.p. every three hours (n=8 per treatment). […] Ipsilateral and contralateral hemispheric volume is measured from the T2-weighted MR images of mice 24 hours post-icus. Relative change in hemispheric volume is calculated as a percent of the difference between ipsilateral brain volume (Vi) and contralateral brain volume (Vc) relative to the contralateral brain volume (Percent Change in Hemispheric Brain Volume=((Vi−Vc)/Vc)×100%.
A short description of data set [9]: Bioconversion of prodrug salt to Compound 1 in mouse plasma in vitro. It is filed as in vitro ADME. The conditions noted are these: 20° C.
For data set [10] the following is noted: mice injected IP.
Description: Measurements are taken at 15 minutes and 24 hours after a 10 mg/kg i.p. loading dose and 1 mg/ml at 8 μl/h maintenance dose (delivered by an Alzet i.p. osmotic pump, Durect Corp., Cupertino, Calif.) of 2-{[3,5-bis(trifluoromethyl)phenyl]carbamoyl}-4-chlorophenyl phosphate bis ethanolamine salt (n=5 mice/time point, mean±SEM) (FIG. 9). […] Samples are analyzed by tandem LC-MS/MS using C18 reversed-phase chromatography and mass analysis with a triple-quadrapole mass spectrometer.
Where [11] appears, read: solid state, freeze dried salts.

T5 sequence (P55087 23-323, species assumed): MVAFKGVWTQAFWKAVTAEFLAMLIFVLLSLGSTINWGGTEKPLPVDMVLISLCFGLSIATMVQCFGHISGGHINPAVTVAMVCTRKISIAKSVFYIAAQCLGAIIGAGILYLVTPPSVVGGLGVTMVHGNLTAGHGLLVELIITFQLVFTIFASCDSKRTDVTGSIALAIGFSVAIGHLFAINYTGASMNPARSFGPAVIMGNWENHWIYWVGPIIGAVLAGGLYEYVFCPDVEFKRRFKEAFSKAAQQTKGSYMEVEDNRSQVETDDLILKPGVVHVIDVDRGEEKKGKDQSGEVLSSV
T4 sequence (P55064 whole entry, species assumed): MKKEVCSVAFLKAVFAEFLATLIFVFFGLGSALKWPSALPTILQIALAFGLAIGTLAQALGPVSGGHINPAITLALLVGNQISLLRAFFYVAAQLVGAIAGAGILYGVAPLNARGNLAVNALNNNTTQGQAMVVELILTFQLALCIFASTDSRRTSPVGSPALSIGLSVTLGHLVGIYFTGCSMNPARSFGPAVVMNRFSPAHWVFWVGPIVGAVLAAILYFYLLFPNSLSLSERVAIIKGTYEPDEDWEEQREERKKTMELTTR
Sequence of purified AQP4b (P55087 23-323): as the sequence (P55087 23-323, species assumed) above
T1 sequence (P55087 23-323 limits assumed): as the sequence (P55087 23-323, species assumed) above

A word on the solubility: it is the concentration that dissolves in the medium under given conditions. `O=C(Nc1cc(C(F)(F)F)cc(C(F)(F)F)c1)c1cc(Cl)ccc1OP(=O)(O)O`: the “stability at RT” value in data set [1] is on record as “stable at RT for a week or more”. Besides, the concentration in solution in “physchem” (pH 7, aqueous buffer) (solubility) was 5000 µg/mL (≈ 10.8 mM).
`O=C(Nc1cc(C(F)(F)F)cc(C(F)(F)F)c1)c1cc(Cl)ccc1O` [Compound 1, N-(3,5-bis(trifluoromethyl)phenyl)-5-chloro-2-hydroxybenzamide] showed a solubility in water in the data set “physchem” (water) of 3.8 µg/mL (≈ 0.0099 mM). Further, in data set [2], the “improvement of percent survival” value turned out to be 3.2 fold and the “improvement of time to 50% survival” value is given as “roughly 52 min”. Moreover, the “extent of CE during the period of observation” value in data set [3] (0.76 mg/kg) was “reduced”. The “reduction of rate of CE development” value in data set [3] (0.76 mg/kg, from 0.081 to 0.032 min^−1) is on record as 2.5 fold. The same compound showed a plasma levels in [3] (mouse water toxicity model, 0.76 mg/kg IP, LC-MS/MS) of 0.03 to 0.06 µg.
As usually defined, the inhibition is the change of the read-out against control, counted positive when it falls. For the compound `O=C(Nc1cc(Cl)cc(Cl)c1)c1cc(Cl)ccc1O` [Compound 3, 5-chloro-N-(3,5-dichlorophenyl)-2-hydroxybenzamide], the inhibition at 10 µM on AQP4b [4] is 55%. Further, the “inhibition of water permeability” value in the data set with AQP4b [5] is recorded as “inhibits”; against AQP2, “inhibits”; against AQP1, “poorly inhibits”; on AQP5, “poorly inhibits”.
As to `O=C(Nc1cc(C(F)(F)F)cc(C(F)(F)F)c1)c1cc(C(F)(F)F)ccc1O` [Compound 4, N-(3,5-bis(trifluoromethyl)phenyl)-2-hydroxy-5-(trifluoromethyl)benzamide], on AQP4, the “AQP Inhibition Cell-Based Assay (%)” value stood at 38.9%. Besides, the “binding to solubilized AQP4b” value at purified AQP4b was “relatively weak binding”.
`O=C(Nc1cc(C(F)(F)F)cc(C(F)(F)F)c1)c1cc(Cl)ccc1OP(=O)([O-])[O-].[Na+].[Na+]` [Compound 5]: the “hydrolysis in the solid state” value in data set [1] (setting [11]) was “about 1 % per day”. Further, the “longer term hydrolysis in solution” value in data set [1] (solution, RT, longer term) was “about 1 % per day”. In “physchem”, the solubility in water amounted to 1000 µg/mL and the “final pH of solutions” value was around 9.5. This compound came in with a solubility in “physchem” (water) of around 10000 µg/mL. The “improvement in overall survival” value in [6] is 29.4%. Further, the average neurological score in [7] (5 point scale, control 2.77±0.66) came out at 0.88±0.31. Further, the “progression of neurological state” value in data set [7] (mouse, in vivo) is given as “did not progress into a state of severe paralysis or death”. Besides, the “relative change in ipsilateral hemispheric brain volume” value in [8] (24 hours after MCAo, 5 mg/kg i.p. every three hours, ±SEM, control 13.4%) is 4.2±1.7%. The “reduction in brain swelling after MCAo” value in [8] (vs saline control) worked out at 3.2 fold.
Regarding `O=C(Nc1ccccc1)c1ccccc1` [Phenylbenzamide, reference compound], the “AQP Inhibition Cell-Based Assay (%)” value on AQP4 is 4.5%.
For `O=C(Nc1cc(C(F)(F)F)cc(C(F)(F)F)c1)c1cc(Cl)ccc1OP(=O)(O)O` [bis ethanolamine salt], in data set [1], the “hydrolysis in the solid state” value was “about 1 % per day” and the “longer term hydrolysis in solution” value was “about 1 % per day”. In the data set “physchem” (water), this compound had a solubility of around 10000 µg/mL. The “time to render prodrug undetectable” value in data set [9] is recorded as “Less than 5 minutes”. Further, in data set [10], the “bioavailability and conversion to Compound 1” value was “good bioavailability and near-complete conversion”; the “prodrug salt in plasma samples” value is listed as “undetectable”.
`NCCO.O=C(Nc1cc(C(F)(F)F)cc(C(F)(F)F)c1)c1cc(Cl)ccc1OP(=O)(O)O` [mono ethanolamine salt]: in data set [1] (after 5 days at RT), the hydrolysis result is “about 1%”. The compound also registered a solubility in “physchem” (water) of around 5000 µg/mL.
As for `O=C(Nc1cc(C(F)(F)F)cc(C(F)(F)F)c1)c1cc(Cl)ccc1OP(=O)([O-])O.[Na+]` [mono sodium salt], the “hydrolysis in the solid state” value in data set [1] (setting [11]) was “about 1 % per day”. Also, the “longer term hydrolysis in solution” value in data set [1] (solution, RT, longer term) is “about 1 % per day”. The “final pH of solutions” value in the data set “physchem” is given as around 8.5. In “physchem” (water), this compound displayed a solubility of around 5000 µg/mL.
